In patent US20030166706A1, “Method of treating osteoarthritis” (priority 2002, published 2003):
“Also recorded” adds a separate entry of the source. Marks after values point to notes of the source that are not given here.

Key:
[1] = test system: Monosodium Iodoacetate-induced Osteoarthritis in Rat; test: Monosodium iodoacetate-induced osteoarthritis in rat model of cartilage damage (MIA Rat); assay type: in vivo, male Wistar rats
[2] = cited from earlier work
[3] = 4 weeks study, subcutaneously via osmotic pumps, 10 mg/kg/day
[4] = 4 weeks study, subcutaneously via osmotic pumps, 30 mg/kg/day
[5] = 4 weeks study, subcutaneously via osmotic pumps, 100 mg/kg/day

In the case of O=C(O)[C@@H]1C[C@@H]2CCCC[C@@H]2N1 [[2(S), 3a(S), 7a(S)]-2,3,3a,4,5,6,7,7a-octahydroindol-2-carboxylic acid], the “degree of structural damage to the cartilage” value ([1]; 10 mg/kg PO, BID, 4 weeks post-MIA) is reported as “significantly decreased”, the “degree of structural damage to the cartilage” value ([1]; 30 mg/kg PO, BID, 4 weeks post-MIA) is reported as “significantly decreased” and the “IJFL (Inhibition of Joint Function Limitation) (% +/− SEM)” value ([1]; 2 weeks study, subcutaneously via osmotic pumps, 90 mg/kg/day, p < 0.05 versus vehicle) is reported as 85 +/− 3%. For the same compound, the “SDCES (Significant Decrease In Cartilage Erosion Severity)” value [1, 3] was “No”, the “SIJWHLE (Significant Increase in Joints Without Hind Limb Erosion)” value [1, 3] was “No” and the “IJFL (Inhibition of Joint Function Limitation) (% +/− SEM)” value ([1]; 4 weeks study, subcutaneously via osmotic pumps, 10 mg/kg/day, Not statistically significant) was 28 +/− 14^e %. For the same compound, the “SDCES (Significant Decrease In Cartilage Erosion Severity)” value [1, 4] was “No”, the “SIJWHLE (Significant Increase in Joints Without Hind Limb Erosion)” value [1, 4] was “No” and the “IJFL (Inhibition of Joint Function Limitation) (% +/− SEM)” value ([1]; 4 weeks study, subcutaneously via osmotic pumps, 30 mg/kg/day, p < 0.05 versus vehicle) was 94 +/− 10%. For the same compound, the “SDCES (Significant Decrease In Cartilage Erosion Severity)” value [1, 5] was “No”, the “SIJWHLE (Significant Increase in Joints Without Hind Limb Erosion)” value [1, 5] was “No” and the “IJFL (Inhibition of Joint Function Limitation) (% +/− SEM)” value ([1]; 4 weeks study, subcutaneously via osmotic pumps, 100 mg/kg/day, p < 0.05 versus vehicle) was 78 +/− 3%. The “inhibiting cartilage damage and treating osteoarthritis, from analysis of proteoglycan loss” value ([1]; MIA Rat data that are expected) was “effective”, the joint pain ([1]; all doses, 3 to 30 mg/kg PO, BID, 4 weeks post-MIA) was “significantly decreased joint pain” and the “preventing or treating cartilage damage” value ([1]; conclusion from MIA Rat data of Tables 1 and 2) was “effective”. The “joint function limitations as defined by a reduction in differential hind-limb weight bearing” value ([1]; dosed orally two times per day) was “decrease joint function limitations”, the “SIJWHLE (Significant Increase in Joints Without Hind Limb Erosion)” value ([1]; four week study, oral, two times per day, 3 mg/kg per dose, Cochran-Armitage Trend test) was “No” and the “SDCES (Significant Decrease In Cartilage Erosion Severity)” value ([1]; four week study, oral, two times per day, 3 mg/kg per dose, Ridit Analysis) was “No”. The “IJFL (Inhibition of Joint Function Limitation) (% +/− SEM)” value ([1]; four week study, oral, two times per day, 3 mg/kg per dose, p < 0.05 versus vehicle) was 62 +/− 6%, the “SIJWHLE (Significant Increase in Joints Without Hind Limb Erosion)” value ([1]; four week study, oral, two times per day, 10 mg/kg per dose, Cochran-Armitage Trend test, actual p = 0.046) was “Yes^f” and the “SDCES (Significant Decrease In Cartilage Erosion Severity)” value ([1]; four week study, oral, two times per day, 10 mg/kg per dose, Ridit Analysis, 10 mg/kg) was “significantly decrease cartilage erosion severity and No”. The “IJFL (Inhibition of Joint Function Limitation) (% +/− SEM)” value ([1]; four week study, oral, two times per day, 10 mg/kg per dose, p < 0.05 versus vehicle) was 70 +/− 9%, the “SIJWHLE (Significant Increase in Joints Without Hind Limb Erosion)” value ([1]; four week study, oral, two times per day, 30 mg/kg per dose, Cochran-Armitage Trend test, actual p = 0.020) was “Yes^e” and the “IJFL (Inhibition of Joint Function Limitation) (% +/− SEM)” value ([1]; four week study, oral, two times per day, 30 mg/kg per dose, p < 0.05 versus vehicle) was 83 +/− 7%. For the same compound, the “SDCES (Significant Decrease In Cartilage Erosion Severity)” value ([1]; four week study, oral, two times per day, 30 mg/kg per dose, p < 0.05 versus vehicle (Ridit Analysis), actual p = 0.021, 30 mg/kg) was “significantly decrease cartilage erosion severity; also recorded: Yes^d”.
For Cc1onc(-c2ccccc2)c1-c1ccc(S(N)(=O)=O)cc1 [valdecoxib, 4-(5-methyl-3-phenyl-4-isoxazolyl)-benzenesulfonamide], the tolerability ([2]; combined analysis of various clinical studies) is given as “well tolerated” and the “overall upper gastrointestinal safety profile (ulcers, perforations, obstructions and GI bleeds)” value ([2]; versus conventional NSAIDs studied such as ibuprofen, diclofenac and naproxen) is given as “significantly better”.
